Assays:
J774.2 macrophages = assay: Cellular uptake and localization of ApoA1-Ac2-26 PA; format: cell-based, mouse
Experimental: Cellular uptake and localization of ApoA1-Ac2-26 PA: PAs containing 40 mol % ApoA1 PA, 10 mol % MMP-Ac2-26 or ROS-Ac2-26 PA, 45.5 mol % E2 filler PA, and 4.5 mol % E2 filler PA with AF546 were co-assembled as described above and aged at least 1 week in PBS at 4° C. to promote nanofiber formation. Macrophages were seeded onto 6-channel μ-Slide VI 0.4 (ibidi) at 2.1×10^5 cells/cm^2 and allowed to adhere for 24 hours before adding 0.33 μM 10% MMP- or ROS-Ac2-26 PA and incubated at 37° C. for 1 or 24 hours. At each time point, the samples were fixed with 4% paraformaldehyde for 10 minutes, followed by permeabilization with 0.125% Triton-X for 10 minutes. The samples were rinsed twice with PBS and incubated with blocking buffer consisting of 2% w/v BSA for one hour at room temperature before incubating with 20 μg/mL LAMP1 antibody (rabbit polyclonal, abcam) for 12-18 hours at 4° C. The samples were rinsed twice with PBS containing 0.01% Tween-20 at one hour per rinse followed by an hour rinse with PBS before adding 2 μg/mL donkey anti-rabbit Alexa Fluor Plus 647 (Highly cross-adsorbed secondary antibody, Invitrogen) for 12-18 hours at 4° C. The samples were rinsed twice with PBS before adding 5 μg/mL 4′,6-Diamidino-2-Phenylindole (DAPI, ThermoFisher Scientific) and phalloidin (1:1000 dilution, CruzFluor™ 488 conjugate, Santa Cruz Biotechnology) for one hour at room temperature. Samples were rinsed and stored in PBS until image analysis. Microscopy was performed using Zeiss 880 confocal microscopy at 63× magnification with numerical aperture of 1.4. Lasers at 405, 488, 561, and 633 nm were used to collect images through Multi Channel acquisition, which uses a separate scan for each channel to avoid spectral overlap. 3D images were created using z-stacks with 9-14 μm thick sections compiled from 0.22 μm slices using a line step of 1, speed of 8, and image size of 1024×1024 pixels at 16 bit depth. To examine colocalization of PAs to endosomes/lysosomes, Manders coefficient calculations using the Coloc 2 plugin from Fiji were used.

J774.2 macrophage = assay: Cytocompatibility, MUSE Count and Viability Assay (Example 2); format: cell-based, mouse; conditions: 24 hours of treatment, 32 μM Ac2-26
Experimental: Macrophage culture and characterization: J774.2 murine macrophages (Sigma-Aldrich) were expanded at 4-9×10^5 cells/mL in growth media consisting of Dulbecco's Modified Eagle's Medium (Sigma-Aldrich) containing 4.5 g/L glucose, 2 mM L-glutamine, 10% v/v FBS, 100 U/m penicillin, and 100 μg/mL streptomycin. Cells were passaged using Accutase™ (StemCell Technologies) and used at passage 6-9 for all experiments. The cells were detached with Accutase™ and gentle scraping, counted, and re-suspended in flow cytometry buffer containing 2% w/v bovine serum albumin (BSA, heat shock fraction free of proteases, globulin, and fatty acids, Sigma-Aldrich) and 0.1% w/v sodium azide (Sigma-Aldrich). To minimize non-specific binding of immunoglobin to Fc receptors, macrophages were incubated with anti-mouse CD16/32 antibody (TrueStain FcX™, Biolegend) at 1 μg/1×10^5 cells for 10 minutes at 4° C. […] All samples were analyzed using Attune NxT Acoustic Focusing Cytometer (Thermo Fisher) with at least 2000 events counted per condition.
Cytocompatibility: Macrophages were seeded at 2.1×10^5 cells/cm^2 on 24 well plates and treated with 32 μM of Ac2-26 or 320 μM PA co-assemblies (final Ac2-26 concentration of 32 μM) for 24 hours. […] Cells were detached by Accutase treatment for 20 minutes and counted using a MUSE® Count and Viability Assay Kit and cytometer (Emd millipore).

Substance: 10% MMP-Ac2-26 PA: co-assembly of 10 mol % MMP-Ac2-26 PA, 50 mol % E2 filler PA, and 40% ApoA1 PA (VVAAEEGGGPQGIWGQGKAMVSEFLKQAWFIENEEQEYVQTVK)
- average Manders coefficient, LAMP1 to PA colocalization (J774.2 macrophages; 24 hours of treatment): 0.79
- average Manders coefficient, PA to LAMP1 colocalization (J774.2 macrophages; 24 hours of treatment): 0.48
- cellular retention of PAs (J774.2 macrophages; confocal microscopy): found in the extracellular space
- J774.2 macrophage viability (J774.2 macrophage): No significant differences

Source: US12214076B2, “Drug delivery vehicles for atherosclerosis nanomedicine” (Northwestern University, priority 2019, dated 2025)
